Source: patent US9872840B2, “Effect of garcinol in delaying the progression of diabetic nephropathy” (Delhi Institute of Pharmaceutical Sciences and Research, priority 2013, dated 2018)

Columns and labels:
STZ diabetic rats [1] = test: Fasting and post prandial blood glucose in STZ diabetic rats; assay type: in vivo, rat; parameters: Reduction of post prandial glucose: concentration or dose not given beside the values; conditions: for Reduction of fasting blood glucose / Reduction of post prandial glucose: 8 weeks treatment; for Reduction of post prandial glucose: compared to diabetic group; for Blood glucose, fasting, before treatment / Blood glucose, post prandial, before treatment: baseline before treatment; for Blood glucose, fasting, before treatment / Blood glucose, post prandial, before treatment / Blood glucose, fasting, after treatment / Blood glucose, post prandial, after treatment: mean ± S.E.M., eight animals; for Blood glucose, fasting, after treatment / Blood glucose, post prandial, after treatment: once daily for 8 weeks, garcinol 200 mg/kg, olmesartan 6 mg/kg/day, glimepiride 1 mg/kg/day
Method: (§1) The Garcinol used for the experimental studies was bought from Sami Labs, Hyderabad. It was administered at the dose of 200 mg/kg dispersed in water with 1% CMC. Further, the experimental procedures were conducted according to the Institutional Animal Ethical Committee (protocol no. DIPSAR/IAEC/2009/01) and CPCSEA guidelines. All rats were housed under conventional conditions with controlled temperature, humidity and light (12 hours light-dark cycle), and were provided with a standard commercial diet and water (ad libitum). Healthy albino rats of Wistar strain were kept for breeding. Diabetes was induced by administration of streptozotocin (STZ, 90 mg/kg, i.p.) to a group of 2 day old pups. Age-matched control rats were given an equal volume of vehicle and considered as ‘Normal’ group of rats. Six weeks after injection, the blood glucose level was measured from the tail vein. Rats with a fasting blood glucose level over 160 mg/dl were considered as diabetic.
(§2) After 6 weeks, four groups of animals, each comprising of 8 animals were made. The groups were assigned to receive vehicle or garcinol (200 mg/kg dispersed in 1% CMC); Olmesartan (6 mg/kg/day) and Glimepiride (1 mg/kg/day) once daily for 8 weeks. After the final drug administration, body weight was measured and blood samples were collected in both fasting and post prandial conditions. The kidney of treated and untreated animals were isolated and fixed in 10% buffered formalin solution to prepare paraffin sections.
However, the decrease was less than antidiabetic reference glimepiride treatment (˜27%). Moreover, the reduction of post prandial glucose with garcinol treatment (˜36%) was more than olmesartan (˜10%) but was lower than observed with glimepiride treatment (almost 43%) when compared to diabetic group.

STZ diabetic rats [2] = test: DNA fragmentation assay (TUNEL) for apoptosis in kidney; assay type: in vivo, rat; conditions: for Apoptosis: kidney of STZ diabetic rats, 8 weeks, garcinol 200 mg/kg, olmesartan 6 mg/kg, glimepiride 1 mg/kg; for DNA fragmentation / apoptosis in kidney (qualitative): kidney of diabetic rats, FIG. 4
Method: For detection and localization of apoptosis in kidney, the technique of terminal deoxynucleotidyl transferase-mediated dUTP nick end labeling (TUNEL) (Apo-BrdU-IHC™ In Situ DNA Fragmentation Assay Kit, Biovison, USA) were employed. Briefly, sections were deparaffinized, hydrated, and digested with proteinase K (20 μg/ml), and then added biotinylated dUTP to the 3′ end of DNA fragments by incubating sections in 0.05 mol/l Tris-HCl buffer (pH 7.6) with 0.03 U/μl TdT and 0.04 nmol/μl biotin-11-dUTP at 37° C. for 1 h. The sections were rinsed in PBS. Endogenous peroxidase was blocked with 0.3% H2O2 in distilled H2O. The sections were rinsed with PBS and covers with 2% blocking solution in 0.1 mol/l sodium maleate to reduce background staining. The sections were then incubated with avidin-peroxidase complexes in PBS (1:50) for 30 min and rinsed with PBS (3×5 min). Peroxidase activity was visualized with 3,3′-diaminobenzidine until the brown product was clearly visible. The sections were then counterstained with methyl green. The positive apoptotic cells were the cells with brown nucleus 2.10.

STZ diabetic rats [3] = test: Kidney histopathology, glomerulosclerotic index (periodic acid-Schiff); assay type: in vivo, rat; conditions: 8 weeks; for GSI (glomerulosclerotic index): kidney of STZ diabetic rats, sclerosis graded 0 to 4, garcinol 200 mg/kg, olmesartan 6 mg/kg, glimepiride 1 mg/kg
Description: (§3) Kidney sections were stained with periodic acid-Schiff's reagent and Masson's modified trichrome to assess glomerulosclerosis and collagenous tubulointerstitial matrix, respectively.
In 4 μm kidney sections stained with periodic acid-Schiff's reagent, 150 glomeruli from each animal were examined. The extent of sclerosis in each glomerulus was subjectively graded on a scale of 0 to 4, with the following grades: grade 0 normal, grade 1 sclerotic area <25% (minimal), grade 2 sclerotic area 25-50% (moderate), grade 3 sclerotic area 50-75% (moderate to severe) and grade 4 sclerotic area 75-100% (severe). A glomerulosclerotic index was then calculated using the formula: […]
Where GSI is glomerulosclerotic index, Fi is the % of glomeruli in the rat with a given score (i).

rat nephrin = test: Immunohistochemistry for nephrin in kidney; assay type: in vivo; conditions: kidney of STZ diabetic rats, 8 weeks; garcinol 200 mg/kg, olmesartan 6 mg/kg, glimepiride 1 mg/kg
Method: Immunohistochemistry was done as previously described according to a modified method using a Polyclonal (C-Terminus) Antibody which is identical to rat nephrin. These experiments were done using 4 micron […] kidney sections, as previously reported. Paraffin-embedded tissues sections were deparaffinized in microwave oven for 3 minutes. The sections were rehydrated in graded series of xylene and alcohols. Endogenous peroxidase activity was blocked by 3% hydrogen peroxide in distilled water for 15 minutes. Antigen retrieval was achieved by steam heating in a solution of citrate buffer, pH 6.0 for 30 minutes. Sections were blocked with 10% normal goat serum for polyclonal antibodies. Sections were then incubated for one hour with primary antibody Polyclonal (C-Terminus) Antibody which is identical to rat nephrin. The sections were then incubated in avidin-biotin complex at 1:25 dilution for 30 min at room temperature and developed using diaminobenzidine (DAB) as chromogen. After washing, the sections were counter-stained with hematoxylin and coverslipped. Negative controls were carried out by incubation in the absence of the primary antibody. The quantification of nephrin was done using point counting technique for each animal as described in established method. Davis B J, Johnston C I, Burrell, L M, Burns W C, Kubota E, Cao Z, Cooper M E, Allen T J. Renoprotective effects of vasopeptidase inhibition in an experimental model of diabetic nephropathy. Diabetologia. 2003; 46(7): 961-71.

STZ diabetic rats [4] = test: Renal function and biochemical parameters in plasma/serum of STZ diabetic rats; assay type: in vivo, rat; conditions: 8 weeks, garcinol 200 mg/kg, olmesartan 6 mg/kg, glimepiride 1 mg/kg
Method: as §1, §2
Biochemical estimation for glucose, insulin, albumin and total proteins; glomerular proteins (viz β-2 microglobulin, serum cystatin c and serum creatinine) for the determination of GFR; inflammatory cytokines and growth factors like Tumor necrosis factor (TNF-α), Nitric Oxide (NO), Transforming growth factor (TGF-β1) and Vascular endothelial growth factor (VEGF) and kidney specific molecular markers involving adiponectin and erythropoietin were made in plasma/serum.

STZ diabetic rats [5] = test: Hemodynamic parameters by tail cuff apparatus; assay type: in vivo, rat
Method: Hemodynamic parameters were measured using tail cuff apparatus (Non-invasive measurement of Blood Pressure-Kent Scientific, USA). Garcinol was also observed to improve the systolic, diastolic and mean Blood Pressure.

STZ diabetic rats [6] = test: Tubulointerstitial matrix index (Masson's trichrome); assay type: in vivo, rat; conditions: kidney of STZ diabetic rats, 8 weeks; semi-quantified; garcinol 200 mg/kg, olmesartan 6 mg/kg, glimepiride 1 mg/kg
Method: as §3
The accumulation of matrix within the tubulointerstitial was assessed on Masson's trichrome stained sections. Blue area on a trichrome-stained section was selected for its color range and the proportional area of tissue with this range of color was then semi-quantified as tubulointerstitial matrix index (TIMI).

STZ diabetic rats [7] = test: Homeostatic model assessment (HOMA-Index, β-cell function) in STZ diabetic rats; assay type: in vivo, rat; conditions: STZ diabetic rats after treatment; mean ± S.E.M., five animals
Description: The homeostatic model assessment (HOMA) is a method used to quantify insulin resistance and beta-cell function (Homeostasis model assessment: insulin resistance and beta-cell function from fasting plasma glucose and insulin concentrations in man. Diabetologia 28: 412-9.). The approximating equation for insulin resistance, in the early model, used a fasting plasma sample, and was derived by use of the insulin-glucose product, divided by a constant. HOMA-IR=(Glucose×Insulin)/405;HOMA-% B=([…])/(Glucose-63)
Where IR is insulin resistance and % B is the β-cell function where Glucose is given in mg/dl and Insulin is given in μU/mL (both during fasting). Garcinol inhibited insulin resistance assessed by HOMA-Index with significance when compared with the diabetic group.

[8] = tested on: glucose transporter 4 (GLUT4); test: GLUT-4 protein expression in soleus muscle of diabetic rats (Western blot); assay type: in vivo, rat; conditions: 8 weeks treatment, FIG. 3
Method: (§4) For determination of glucose transporter 2 (GLUT2) protein expressions in liver and glucose transporter 4 (GLUT4) protein expressions in skeletal muscle; each sample prepared was mixed with 1% sodium dodecyl sulfate and 50 mM dithiothreitol, and the mixture was subjected to electrophoresis with 10% polyacrylamide gel. The separated proteins on the gel were electrotransferred to a polyvinylidene difluoride membrane. After blocking with 5% skim milk solution including 0.05% Poly (Oxyethylene) sorbitan monolaurate (Tween 20) overnight at 4° C., the membrane was reacted with anti-GLUT-2 antibody (Abcam, UK) & anti-GLUT-4 antibody (Abcam, UK) for 2 h. Subsequently, it was incubated with horseradish peroxidase conjugated IgG (diluted 1:2000) [Jackson immunoresearch laboratories, USA] for 2 h at room temperature (Western Blot). Reduced qualitative expression of GLUT2 and GLUT 4 in liver and muscle respectively of diabetic rats were improved with the garcinol treatment (FIG. 3), which were better than observed with olmesartan.

[9] = tested on: glucose transporter 2 (GLUT2); test: GLUT-2 protein expression in liver of diabetic rats (Western blot); assay type: in vivo, rat; conditions: 8 weeks treatment, FIG. 3
Method: as §4

SMILES | Reduction of fasting blood glucose (STZ diabetic rats [1]) [%] | Reduction of post prandial glucose (STZ diabetic rats [1]) [%] | Blood glucose, fasting, before treatment (STZ diabetic rats [1]) [mg/dL] | Blood glucose, post prandial, before treatment (STZ diabetic rats [1]) [mg/dL] | Blood glucose, fasting, after treatment (STZ diabetic rats [1]) [mg/dL] | Blood glucose, post prandial, after treatment (STZ diabetic rats [1]) [mg/dL] | Apoptosis (STZ diabetic rats [2]) [% FA] | GSI (glomerulosclerotic index) (STZ diabetic rats [3]) | Nephrin (rat nephrin) [% FA] | Adiponectin (STZ diabetic rats [4]) [µg/mL] | Beta-2 microglobulin (GFR) (STZ diabetic rats [4]) [µg/mL] | Erythropoietin (STZ diabetic rats [4]) [mlU/ml] | Nitric Oxide (STZ diabetic rats [4]) [nmol/µL] | Plasma Insulin (STZ diabetic rats [4]) [ng/mL] | Serum Creatinine (GFR) (STZ diabetic rats [4]) [mg/dL] | Serum CystatinC (GFR) (STZ diabetic rats [4]) [ng/mL] | TGF-β (STZ diabetic rats [4]) [pg/mL] | TNF-α (STZ diabetic rats [4]) [pg/mL] | Total Proteins (STZ diabetic rats [4]) [mg/mL] | VEGF (STZ diabetic rats [4]) [pg/mL] | also measured
C=C(C)[C@@H](CC=C(C)C)C[C@@]12C[C@@H](CC=C(C)C)C(C)(C)[C@@](CC=C(C)C)(C(=O)C(C(=O)c3ccc(O)c(O)c3)=C1O)C2=O [Garcinol] | ~18 | ~36 | 166.2 ± 4.9 | 287 ± 24.7 | 136.2 ± 5.86 | 190 ± 5.27 | 20 | 1.4 | 50 | 3.297 ± 0.56 | 0.3488 ± 0.12 | 0.3508 ± 0.029 | 0.32 ± 0.026 | 12.13 ± 1.17 | 1.804 ± 0.36 | 0.4098 ± 0.028 | 3.908 ± 0.82 | 0.04059 ± 0.0092 | 2.05 ± 0.14 | 57.21 ± 3.89 | Diastolic blood pressure, after Garcinol administration (STZ diabetic rats [5]; after Garcinol administration): 112; Mean blood pressure, after Garcinol administration (STZ diabetic rats [5]; after Garcinol administration): 125; Systolic blood pressure, after Garcinol administration (STZ diabetic rats [5]; after Garcinol administration): 153; Diastolic blood pressure, before treatment (STZ diabetic rats [5]; before treatment): 127; Mean blood pressure, before treatment (STZ diabetic rats [5]; before treatment): 139; Systolic blood pressure, before treatment (STZ diabetic rats [5]; before treatment): 165; TIMI (tubulointerstitial matrix index) (STZ diabetic rats [6]): 2; % BETA-CELL FUNCTION (STZ diabetic rats [7]): 31.4 ± 3.17; HOMA-INDEX (STZ diabetic rats [7]): 1.55 ± 0.0827
CCC1=C(C)CN(C(=O)NCCc2ccc(S(=O)(=O)NC(=O)N[C@H]3CC[C@H](C)CC3)cc2)C1=O [Glimepiride, glimepiride] | ~27 | ~43 | 165.2 ± 1.5 | 308 ± 4.98 | 119.2 ± 5.4 | 174 ± 3.75 | 90 | 2.8 | 20 | 2.277 ± 0.86 | 1.42 ± 0.21 | 0.5141 ± 0.13 | 0.33 ± 0.064 | 14.38 ± 1.29 | 1.873 ± 0.56 | 0.2933 ± 0.033 | 8.316 ± 2.06 | 0.08563 ± 0.0167 | 1.956 ± 0.09 | 61.29 ± 2.54 | Qualitative expression of GLUT 4 in muscle [8]: did not show any improvement; Qualitative expression of GLUT2 in liver [9]: did not show any improvement; DNA fragmentation / apoptosis in kidney (qualitative) (STZ diabetic rats [2]): no change in the decrease in apoptosis; TIMI (tubulointerstitial matrix index) (STZ diabetic rats [6]): 2; % BETA-CELL FUNCTION (STZ diabetic rats [7]): 35.6 ± 5.24; HOMA-INDEX (STZ diabetic rats [7]): 1.53 ± 0.144
CCCc1nc(C(C)(C)O)c(C(=O)OCc2oc(=O)oc2C)n1Cc1ccc(-c2ccccc2-c2nnn[nH]2)cc1 [Olmesartan, olmesartan medoxomil] | 14 | ~10 | 162.7 ± 4.34 | 288 ± 6.82 | 139.7 ± 5.05 | 259 ± 7.16 | 40 | 1.4 | 62.5 | 0.93 ± 0.18 | 0.6529 ± 0.21 | 0.2657 ± 0.047 | 0.34 ± 0.097 | 12.74 ± 1.48 | 2.063 ± 0.41 | 0.4617 ± 0.048 | 5.963 ± 0.896 | 0.05665 ± 0.013 | 2.123 ± 0.11 | 66.3 ± 1.14 | DNA fragmentation / apoptosis in kidney (qualitative) (STZ diabetic rats [2]): decrease in the DNA fragmentation was clearly observed qualitatively; Histopathological changes in kidney (qualitative) (STZ diabetic rats [3]; kidney of diabetic rats, FIG. 4): improvement in tubular injury was visible; TIMI (tubulointerstitial matrix index) (STZ diabetic rats [6]): 1; % BETA-CELL FUNCTION (STZ diabetic rats [7]): 21.7 ± 1.98; HOMA-INDEX (STZ diabetic rats [7]): 1.7 ± 0.095
